How the values were obtained:
[1] = test system: H460 lung cancer cells; assay: Dose-dependent inhibition of proliferation (Alamar Blue), H460; assay type: cell-based, human; details: normalized to mock-transfected cells (0 pM = 100%)
Method: Lipid-based reverse transfections were carried out in triplicate according to a published protocol (Ovcharenko et al., 2005) and the following parameters: Cells (5,000-12,000 per 96 well), 0.1-0.2 μl Lipofectamine™ 2000 (cat. no. 11668-019, Invitrogen Corp., Carlsbad, Calif., USA) in 20 μl OptiMEM (Invitrogen), 30 nM final concentration of miRNA in 100 μl. Electroporation of H226 cells was carried out using the BioRad Gene Pulser Xcell™ instrument (BioRad Laboratories Inc., Hercules, Calif., USA) with the following settings: 5×10^6 cells with 5 μg miRNA in 200 μl OptiMEM (1.6 μM miRNA), square wave pulse at 250 V for 5 ms. Electroporated H226 cells were seeded at 7,000 cells per 96-well in a total volume of 100 μl. All cells except for Calu-3 cells were harvested 72 hours post transfection or electroporation for assessment of cellular proliferation. Calu-3 cells were harvested 10 days post transfection. Proliferation assays were performed using Alamar Blue (Invitrogen) following the manufacturer's instructions. As a control for inhibition of cellular proliferation, siRNA against the motor protein kinesin 11, also known as Eg5, was used. Eg5 is essential for cellular survival of most eukaryotic cells and a lack thereof leads to reduced cell proliferation and cell death (Weil et al., 2002). siEg5 was used in lipid-based transfection following the same experimental parameters that apply to miRNA. The inventors also used a DNA topoisomerase II inhibitor, etoposide, at a final concentration of 10 μM and 50 μM as an internal standard for the potency of miRNAs. Etoposide is an FDA-approved DNA topoisomerase II inhibitor in the treatment of lung cancer. […] Percent (%) proliferation values from the Alamar Blue assay were normalized to values from cells treated with negative control miRNA. Percent proliferation of hsa-miR-126 treated cells relative to cells treated with negative control miRNA (100%) is shown in Table 6 and in FIG. 1.
The inventors determined sensitivity and specificity of hsa-miR-126 by administering hsa-miR-126 or negative control miRNA at increasing concentrations, ranging from 0 pM to 3,000 pM (Table 7, FIG. 2). Delivery of miRNA and assessment of cellular proliferation of A549 and H460 cells were done as described above. Proliferation values from the Alamar Blue assay were normalized to values obtained from mock-transfected cells (0 pM=100% proliferation). Increasing amounts of negative control miRNA (NC) had no effect on cellular proliferation of A549 or H460 cells (Table 7 and FIG. 2). In contrast, the growth-inhibitory phenotype of hsa-miR-126 is dose-dependent and correlates with increasing amounts of hsa-miR-126 (Table 7 and FIG. 2). Hsa-miR-126 induces a specific therapeutic response at concentrations as low as 300 pM.

[2] = test system: RWPE2 prostate cancer cells; assay: Alamar Blue proliferation assay, RWPE2; assay type: cell-based, human; details: 30 nM, normalized to negative control miRNA (100% proliferation)
From the text: The inventors assessed the therapeutic effect of hsa-miR-126 for prostate cancer by using 4 individual human prostate cancer cell lines. To measure cellular proliferation of prostate cancer cells, the following prostate cancer cell lines were used: PPC-1, derived from a bone metastasis; Du145, derived from a brain metastasis; RWPE2, derived from prostate cells immortalized by human papillomavirus 18 and transformed by the K-RAS oncogene; and LNCaP, derived from a lymph node metastasis (Stone et al., 1978; Horoszewicz et al., 1980; Brothman et al., 1991; Pretlow et al., 1993; Bello et al., 1997). PPC-1 and Du145 cells lack expression of the prostate-specific antigen (PSA) and are independent of androgen receptor (AR) signaling. In contrast, RWPE2 and LNCaP cells test positive for PSA and AR. Cells were transfected with synthetic hsa-miR-126 (Pre-miR™-hsa-miR-126, Ambion cat. no. AM 17100) or negative control miRNA (NC; Pre-miR™ microRNA Precursor Molecule-Negative Control #2; Ambion cat. no. AM17111) in a 96-well format using a lipid-based transfection reagent. […] Proliferation was assessed 4-7 days post-transfection using Alamar Blue™ (Invitrogen) following the manufacturer's instructions. […] Fluorescent light units (FLU) were measured after 3 hours, normalized to the control, and plotted as percent change in proliferation. […]

## hsa-miR-126 (UCGUACCGUGAGUAAUAAUGC; synthetic pre-miR form, further chemistry not given here) [Synthetic hsa-miR-126 (Pre-miR™-hsa-miR-126, Ambion cat. no. AM17100)]
[1]; H460 cells, 3 pM miRNA
  % proliferation: 105.60%
[1]; H460 cells, 30 pM miRNA
  % proliferation: 108.98%
[1]; H460 cells, 300 pM miRNA
  % proliferation: 86.46%
[1]; H460 cells, 3,000 pM miRNA
  % proliferation: 33.91%
[2]
  % proliferation: 91.82%

Source: patent publication US20090131354A1, “miR-126 REGULATED GENES AND PATHWAYS AS TARGETS FOR THERAPEUTIC INTERVENTION” (priority 2007, published 2009)
